The record followed here is patent US9707200B2, “Metabolism-improving agent comprising rare fatty acid” (KYOTO UNIVERSITY, priority 2012, dated 2017).

One experiment addresses T1, PPARγ (Homo sapiens, UniProt P37231).
T1 construct: expressed in transfected cells; host or cells: CV-1 (African green monkey kidney)
T1 sequence (P37231 238-503 limits assumed): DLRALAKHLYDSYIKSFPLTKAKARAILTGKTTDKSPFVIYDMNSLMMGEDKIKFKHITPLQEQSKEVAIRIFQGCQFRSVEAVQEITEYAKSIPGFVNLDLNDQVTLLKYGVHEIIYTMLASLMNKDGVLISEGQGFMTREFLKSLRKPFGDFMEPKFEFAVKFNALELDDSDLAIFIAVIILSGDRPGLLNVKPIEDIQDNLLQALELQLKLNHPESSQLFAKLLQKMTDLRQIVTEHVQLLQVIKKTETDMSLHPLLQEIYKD
Nature of the experiment: PPARγ ligand activity, GAL4-PPARγ reporter luciferase assay in CV-1 cells. The class given is cell-based. The note with it: 24 hr incubation, KetoA and HYA each at 30 μM, other fatty acids by a similar method. As to the method: To evaluate the function of oxo fatty acid and the like, PPARα, γ-activating action was measured first. The measurement was performed in reference to Nobuyuki Takahashi et al., FEES Letters 514 (2002) p. 315-322, “Dual action of isoprenols from herbal medicines on both PPARgamma and PPARalpha in 3T3-L1 adipocytes and HepG2 hepatocytes.”, the section of Materials and Methods “Reporter plasmids and luciferase assays”. To be specific, a plasmid containing DNA encoding a fused protein of PPARα, γ ligand binding region and GAL4 DNA binding region (pM-hPPARα or pM-hPPARγ), a reporter plasmid containing GAL4 binding DNA sequence linked to luciferase (p4xUASg-tk-luc), and internal control (pRL-CMV) to standardize transfection efficiency were introduced into CV-1 cell derived from the kidney of African green monkey. The ligand described below was added to the cells and, after incubation for 24 hr, luciferase activity was measured. As a ligand, KetoA and HYA were each added at 30 μM.
The concentration of the sample was adjusted with ethanol. Ethanol was used as a negative control, […], and GW7647 (10 nM) and Troglitazone (5 μM) were used as […].

The test system of experiment [1] is HepG2 cells. Nature of the experiment: Effect on LXR agonist-induced expression of fatty acid synthesis genes, real-time PCR. To be noted: 10 nM T0901317 + 60 μM fatty acid, 24 hr. The class given is cell-based, human. As for the experimental part:
Using human liver cancer-derived HepG2 cells (cell No.; JCRB1054, the Health Science Research Resources Bank), a suppressive effect on fatty acid synthesis promotion induced by LXR agonist was evaluated by reference to the method of Zaima et al. (Journal of Lipid Research 47, 2712-2717, 2006).
(§1) HepG2 cells (2.0×10^5 cells/mL) were cultured in DMEM medium containing 10% FES for 24 hr, and the medium was exchanged with 0.1% BSA-containing DMEM medium containing 10 nM LXR agonist T0901317 (Cayman Chemicals) and 60 μM various fatty acid. After culture for 24 hr, the cells were recovered, and total RNA was extracted using Sepasol reagent (Nacalai Tesque). After DNase treatment, reverse transcription was performed using SuperScriptII (Invitrogen) to give a cDNA solution. Using SYBR Green Mix (Bio-Rad, Richmond, Calif.) and gene-specific primer (Table 1), real-time PCR was performed as follows.
1. Reaction at 96° C., 15 min, 2. reaction at 96° C., 15 sec, 3. reaction at 60° C. for 30 sec, 4. measurement of fluorescence, 5. 2-4 were repeated 40 times, 6. the melting curve was measured from 65° C. to 95° C. at 0.4° C. intervals. As the internal standard, 18S rRNA was used. The genes involved in the fatty acid synthesis as measured were Sterol regulatory element binding protein-1c (SREBP-1c), Stearoyl coenzyme A desaturase-1 (SCD-1), Fatty acid synthase (FAS), and Acetyl CoA carboxylase-1 and -2 (ACC-1, 2). As for the amount of accumulated intracellular TG, the lipid was extracted with chloroform-methanol, and quantified by triglyceride-′E Test Wako (Wako Pure Chemical Industries, Ltd.).

Experiment [2] relates to HepG2 cells. As to the kind of experiment: Immature and mature SREBP-1 protein expression induced by LXR agonist, Western blot. Format: cell-based, human. The note with it: 10 nM T0901317 + 60 μM fatty acid, 24 hr; for immature SREBP-1 expression induced by LXR agonist: membrane fraction; for mature SREBP-1 expression induced by LXR agonist: nuclear fraction. As for the experimental part: as §1
(§2) In addition, the protein expression level of immature and mature SREBP-1c was measured. Cells treated as mentioned above were dispersed in buffer A (250 mM sucrose, 10 mM HEPES-KOH, 10 mM KCl, 1.5 mM MgCl2, 1 mM EDTA-Na, 1 mM EGTA-Na, pH 7.6) containing a protease inhibitor, passed 20 times through a 23 gauge injection needle, and centrifuged (1,000×g, 4° C., 5 min) to separate into supernatant 1 and precipitate 1. The precipitate 1 was re-dissolved in buffer B (20 mM HEPES-KOH, 0.42 M NaCl, 2.5% glycerol, 1.5 mM MgCl2, 1 mM EDTA-Na, 1 mM EGTA-Na, pH 7.6), and centrifuged (10^5×g, 4° C., 15 min). The obtained supernatant 2 was used as a nuclear fraction (including mature form). The supernatant 1 was further centrifuged (10^5×g, 4° C., 15 min), and the obtained precipitate 2 was dissolved in cell lysate (10 mM Tris-HCl, 100 mM NaCl, 1% SDS, 1 mM EDTA-Na, 1 mM EGTA-Na) and used as a membrane fraction (including immature form). Using these as samples, measurement was performed by Western blot method using anti-SREBP-1 polyclonal antibody (Santa Cruz). Using Dual luciferase system (Promega), antagonizing action on LXR was evaluated by luciferase assay. p3xIR1-tk-Luc, pCMX-hLXRa, pRL-CMX were introduced into HepG2 cell. After culture in a 0.1% BSA-containing serum-free medium containing various fatty acids and T0901317 for 24 hr, the luciferase activity was measured.

Another experiment has as its target T2, LXR (Homo sapiens, UniProt Q13133).
T2 construct: expressed in transfected cells; host or cells: HepG2 (human liver cancer-derived)
T2 sequence (Q13133 1-447): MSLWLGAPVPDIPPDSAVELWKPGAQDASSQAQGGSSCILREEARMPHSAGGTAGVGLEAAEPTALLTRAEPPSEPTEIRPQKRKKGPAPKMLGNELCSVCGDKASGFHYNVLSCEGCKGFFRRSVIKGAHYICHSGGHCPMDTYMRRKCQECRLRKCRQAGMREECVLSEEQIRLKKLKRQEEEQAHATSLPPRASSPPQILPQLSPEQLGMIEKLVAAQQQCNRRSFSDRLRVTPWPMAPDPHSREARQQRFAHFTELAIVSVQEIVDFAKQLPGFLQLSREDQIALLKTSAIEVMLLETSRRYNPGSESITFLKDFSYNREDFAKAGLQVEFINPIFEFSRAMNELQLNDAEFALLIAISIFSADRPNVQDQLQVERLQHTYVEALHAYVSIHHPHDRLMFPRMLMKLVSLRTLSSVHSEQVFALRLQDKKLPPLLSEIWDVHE
As to the kind of experiment: Antagonizing action on LXR by luciferase assay. The class given is cell-based. The note with it: for antagonizing action on LXR (relative luciferase activity): HepG2 cells, fatty acid + T0901317, 24 hr; for lipid synthesis suppressive action by the antagonizing action on LXR: overall finding from SREBP-1c, SREBP-1, SCD-1, FAS, ACC1, 2, triacylglycerol and LXR luciferase measurements in HepG2 cells. As for the experimental part: as §2

As to `CCCCC/C=C\CC(O)CCCCCCCCC(=O)O` (stereo not drawn) [HYA, 10-hydroxy-cis-12-octadecenoic acid], the “PPARγ agonist activity (relative luciferase activity)” value on PPARγ is given as “some PPARγ agonist activity”. In addition, in the experiment with HepG2 cells [1], the “ACC1 mRNA expression induced by LXR agonist” value was “down regulation”, the “ACC2 mRNA expression induced by LXR agonist” value was “down regulation”, the “FAS mRNA expression induced by LXR agonist” value is “down regulation” and the “SCD-1 mRNA expression induced by LXR agonist” value is listed as “down regulation”. Besides, the “suppression of SREBP-1c mRNA expression induced by LXR agonist” value in the experiment on HepG2 cells [1] was “strong suppressive action”. Further, in the experiment with HepG2 cells [2], the “immature SREBP-1 expression induced by LXR agonist” value is recorded as “strongly suppressed” and the “mature SREBP-1 expression induced by LXR agonist” value is reported as “strongly suppressed”. For the same compound, on LXR, the “antagonizing action on LXR (relative luciferase activity)” value was “significantly suppress the action of T0901317” and the “lipid synthesis suppressive action by the antagonizing action on LXR” value is “strong lipid synthesis suppressive action”.
For the compound `CCCCC/C=C\CC(=O)CCCCCCCCC(=O)O` [KetoA, 10-oxo-cis-12-octadecenoic acid], on PPARγ, the “PPARγ agonist activity (relative luciferase activity)” value was “strong PPARα and γ agonist activity”. For the same compound, in the experiment on HepG2 cells [1], the “ACC1 mRNA expression induced by LXR agonist” value was “down regulation”, the “ACC2 mRNA expression induced by LXR agonist” value is given as “down regulation”, the “FAS mRNA expression induced by LXR agonist” value is reported as “down regulation” and the “SCD-1 mRNA expression induced by LXR agonist” value was “down regulation”. The “suppression of SREBP-1c mRNA expression induced by LXR agonist” value in the experiment on HepG2 cells [1] is recorded as “strong suppressive action”. In the experiment with HepG2 cells [2], the “immature SREBP-1 expression induced by LXR agonist” value is “strongly suppressed” and the “mature SREBP-1 expression induced by LXR agonist” value is listed as “strongly suppressed”. For the same compound, on LXR, the “antagonizing action on LXR (relative luciferase activity)” value is on record as “significantly suppress the action of T0901317” and the “lipid synthesis suppressive action by the antagonizing action on LXR” value was “strong lipid synthesis suppressive action”.
